Data set [1] concerns Escherichia coli (ATCC 11229). The experiment in a line: Surface testing (log kill) of peptide-containing acrylic coatings, Gram-negative. Format: cell-based. Particulars: for Gram Negative Sample 1 Log Kill / Gram Negative Sample 2 Log Kill / Gram Negative Sample 3 Log Kill / Gram Negative Average Log Kill: 2 hr contact; for Gram Negative Sample 1 Log Kill / Gram Negative Sample 2 Log Kill / Gram Negative Sample 3 Log Kill: 1×10^5 bacteria; for Gram Negative Average Log Kill: average of triplicate. From the text: (§1) Bacteria and media: Bacterial strains were obtained from the American Type Culture Collection (ATCC, Manassas, Va.) Staphylococcus aureus (ATCC 25923) and Escherichia coli (ATCC 11229) were used for bacterial Gram-positive and Gram-negative challenges, respectively. Luria-Bertani (LB) media (Difco Laboratories, Detroit, Mich.), prepared as per the manufacturer's specifications, was used as a bacterial growth and dilution medium for preparation of bacteria for Gram-positive and Gram-negative challenges.
(§2) Peptides: Peptides Chr-1, Chr-3, Chr-1 Truncated, and Chr-3 Truncated were obtained from Biosynthesis, Inc. (Lewisville, Tex.). Peptides were synthesized then purified by HPLC, Peptides arrived lyophilized, and were resuspended in sterile H2O. For minimum inhibitory concentration (MIC) testing, this suspension was added to media as described below. For surface challenges, this peptide mixture was added to a commercial acrylate coating resin system at 1% (w/w) solids based on the solids of the polymer.
(§3) Coating preparation: Films were prepared by combining 25 mg of the respective peptide with 4.95 g acrylate resin (Minwax® Polycrylic®, a water borne polyacrylate resin, 50% w/w solids) with agitation. The final solution was allowed to stir for an additional 30 min and films were cast by brush onto a pre-cleaned aluminum foil. The coatings were allowed to cure at ambient conditions for 24 hours prior to microbial testing. Average thickness of films was determined by a QuaNix 4500 (Automation) paint thickness gauge.
(§4) Surface testing: Bacteria were grown at 37° C. Log phase cells were harvested by centrifugation, counted on a hemocytometer using bright field microscopy, pelleted by centrifugation at 4000×g for 10 min, and resuspended in a 0.5% NaCl solution at a concentration of 1×10^7 cfu/mL. To prevent desiccation of the bacteria during testing, a hydration chamber was prepared. The chamber consisted of a sterile 3×3 in gauze pad placed in the bottom of a sterile 150×15 mm Petri dish. The gauze pad was saturated with 5 mL of sterile water and the test samples placed on top. A 10 μL aliquot containing, 1×10^5 bacteria was added to each test coating (280 mm^2), and then placed in a hydration chamber at room temperature. After 2 hr of incubation, the remaining bacteria were recovered by placing the coating in a tube containing 5 mL sterile LB media, followed by 30 sec of vortexing. Serial dilutions were carried out, and incubated for 18 hr at 37° C. with agitation. Following incubation, the cultures were examined for the presence of turbidity, indicating bacterial growth. Each coating was tested in triplicate. […] All bacterial challenge procedures were conducted using standard aseptic techniques in a BSL-2 hood.

Data set [2] is described as follows: Surface energy and contact angle of peptide coatings (sessile drop). The following applies: peptide in acrylic coating; for Critical Surface Energy: calculated from contact angle data; for Contact angle CH2OHCH2OH: ethylene glycol; for Contact angle CH2OHCH2OH / Contact angle CH2I2 / Contact angle H2O: 15 sec after application; for Contact angle CH2I2: methylene iodide; for Contact angle H2O: water. Format: physicochemical. As to the method: Coating preparation: Films were prepared by combining 25 mg of the respective peptide with 4.95 g acrylate resin ([…]® Polycrylic®, a water borne polyacrylate resin, 50% w/w solids) with agitation. The final solution was allowed to stir for an additional 30 min and films were cast by brush onto a pre-cleaned aluminum foil. The coatings were allowed to cure at ambient conditions for 24 hours prior to microbial testing. Average thickness of films was determined by a QuaNix 4500 (Automation) paint thickness gauge. Surface Energy and Contact Angle: Surface energy and contact angle measurements were performed using a VCA 2500 video contact angle system by AST Products, Inc. Contact angle measurements using the sessile drop technique. An image was captured of the interface 15 sec after application and contact angle was measured. Due to the complex nature of coating and difficulty in ascertaining the surface segregating ability of the peptide. The surface contact angle method was used and subsequent critical surface energy calculations were based on the data obtained. In all cases the surface became more hydrophobic as indicated by the significant increase in contact angle for water. […] Upon subsequent analysis, a correlation was observed between critical surface energy and surface antimicrobial properties, especially Gram-positive, and to a much lesser extent Gram-negative.

In data set [3] the test system is Staphylococcus aureus (ATCC 25923). The experiment in a line: MIC testing of peptides in solution, Gram-positive. Format: cell-based. Particulars: peptide in solution, LB media, 18 hr 37° C., 1×10^5 CFU.
From the text: as §1
Peptides: Peptides Chr-1, Chr-3, Chr-1 Truncated, and Chr-3 Truncated were obtained from Biosynthesis, Inc. (Lewisville, Tex.). Peptides were synthesized then purified by HPLC, Peptides arrived lyophilized, and were resuspended in sterile H2O. For minimum inhibitory concentration (MIC) testing, this suspension was added to media as described below. […]
Bacterial challenge: MIC testing: To determine the minimum inhibitory concentration (MIC) of peptides, compounds were weighed and dissolved in sterile water. […] Log phase cells were harvested by centrifugation, counted on a hemocytometer using bright field microscopy, pelleted by centrifugation at 4000×g for 10 min, and resuspended in a 0.5% NaCl solution at a concentration of 1×10^7 cfu/mL. […] MIC was determined to be the lowest concentration of biocide that prevented visible bacterial growth at 18 hr.

For data set [4] the test system is unchanged. In words: Surface testing (log kill) of peptide-containing acrylic coatings, Gram-positive. The following applies: for Surface antimicrobial activity of coating (in words), Gram-positive / Gram Positive Sample 1 Log Kill / Gram Positive Sample 2 Log Kill / Gram Positive Sample 3 Log Kill / Gram Positive Average Log Kill: 1% (w/w) peptide in acrylic coating; for Gram Positive Sample 1 Log Kill / Gram Positive Sample 2 Log Kill / Gram Positive Sample 3 Log Kill / Gram Positive Average Log Kill: 2 hr contact; for Gram Positive Sample 1 Log Kill / Gram Positive Sample 2 Log Kill / Gram Positive Sample 3 Log Kill: 1×10^5 bacteria; for Gram Positive Average Log Kill: average of triplicate. Format: cell-based.
From the text: as §1, §2, §3, §4

Data set [5] is described as follows: Surface segregation of peptide, bromophenol blue staining. Format: physicochemical. Particulars: peptide in acrylic coating; for Molecules Peptide per mm^2 at surface of coating: absorbance at 600 nm. As to the method: as §3
Surface Segregation of Peptide: Each 280 mm^2 section of the test coating was submerged in 0.5% bromophenol blue for one minute. Coatings were then removed and washed three times with 20 mL di-H2O. Bromophenol blue was then recovered from the test samples using 0.05 M HCl in ethanol. Absorbance at 600 nm was determined using a Cary 5E UV-Vis-NIR (Varian, Walnut Creek, Calif.). Beer's Law was used to determine concentration of bromophenol blue and thus concentration of peptides at the surface of the coatings.
Bromophenol blue has been used extensively to quantify the amount of protein or peptide in a solution (Bonate, Anal Biochem 1988, 175, 300-4; Schosinsky et al., Clin Chem 1987, 33, 223-6). A test method to visualize surface peptide using bromophenol blue was adapted from these solution test methods. To determine the extent which peptides were segregated to the surface of test coatings, each coating was reacted with an aqueous solution containing 0.5% bromophenol blue. This solution provided molar excess of bromophenol blue that was able to undergo an acid-base reaction with the amines of the peptide at a 1:1 ratio. The reaction was then reversed, and the bromophenol blue recovered with […]. The absorbance of this solution at 600 nm was determined and Beer's Law was used to determine the concentration of bromophenol blue (FIG. 2). This could be directly converted into number of peptides at the surface and correlated directly to the effectiveness of each coating.

Another data set deals with Escherichia coli. The experiment in a line: MIC testing of peptides in solution, Gram-negative. Format: cell-based. Particulars: peptide in solution, LB media, 18 hr 37° C., 1×10^5 CFU.
For the next data set, the system named is eukaryotic cells. Particulars: literature; cited from earlier work.
The test system of data set [6] is Gram-positive and Gram-negative bacteria. Particulars: both Gram-positive and Gram-negative bacteria; Iijima et al. 2003; cited from earlier work.
Setting [7] is: 1% (w/w) peptide in acrylic coating.

For the substance “Chr-3: Full length antimicrobial peptide Chrysophsin-3 from gills of red sea bream Chrysophrys major, SEQ. ID. NO. 3 (FIGLLISAGKAIHDLIRRRH; Chrysophrys major)”, in data set [1] (setting [7]), the “Gram Negative Sample 1 Log Kill” value is 0, the “Gram Negative Sample 2 Log Kill” value worked out at 0, the “Gram Negative Sample 3 Log Kill” value amounted to 0 and the “Gram Negative Average Log Kill” value is recorded as 0. Further, in data set [2], the “Critical Surface Energy” value is 97.22 dynes/cm, the “Contact angle CH2OHCH2OH” value is listed as 63.02(±3.51), the “Contact angle CH2I2” value is listed as 64.57(±3.52) and the “Contact angle H2O” value is recorded as 43.88(±5.01). In data set [3], the “MIC Gram +” value is 0.00667 mg of peptide per mL of culture media. Moreover, in data set [4], the “Surface antimicrobial activity of coating (in words), Gram-positive” value is given as “moderate activity”; the “Gram Positive Sample 1 Log Kill” value is 1; the “Gram Positive Sample 2 Log Kill” value stood at 1; the “Gram Positive Sample 3 Log Kill” value stood at 1. Besides, the “Gram Positive Average Log Kill” value in data set [4] came to 1. Besides, in data set [5], the “Peptide at surface of coating, % of total peptide” value was “(~1%)” and the “Molecules Peptide per mm^2 at surface of coating” value is on record as 1.9 × 10^13 Molecules Peptide per mm^2. In the data set with Escherichia coli, the “MIC Gram −” value is reported as 0.0667 mg of peptide per mL of culture media. Further, the “Toxicity to eukaryotic cells” value in the data set with eukaryotic cells was “varying levels of toxicity”. Also, in data set [6], the Antimicrobial activity concentration result is recorded as “low micromolar”.

Turning to “Chr-1: Full length antimicrobial peptide Chrysophsin-1 from gills of red sea bream Chrysophrys major, SEQ. ID. NO. 1 (FFWLIKGAIHAGKAIHGLIHRRRH; Chrysophrys major)”, in data set [1] (setting [7]), the “Surface antimicrobial activity of coating (in words), Gram-negative” value is “high activity”; the “Gram Negative Sample 1 Log Kill” value stood at 1; the “Gram Negative Sample 2 Log Kill” value is 2; the “Gram Negative Sample 3 Log Kill” value worked out at 1. Besides, the “Gram Negative Average Log Kill” value in data set [1] (setting [7]) is given as 1.3333. Further, in data set [1] (after two hours), the “Reduction of Gram-negative bacteria by peptide containing coating” value was 90%. In addition, in data set [2], the “Critical Surface Energy” value was 131.6 dynes/cm, the “Contact angle CH2OHCH2OH” value is given as 60.77(±3.35), the “Contact angle CH2I2” value is 69.45(±4.81) and the “Contact angle H2O” value is given as 53.05(±4.04). Also, the “MIC Gram +” value in data set [3] is on record as 0.00667 mg of peptide per mL of culture media. Also, in data set [4], the “Surface antimicrobial activity of coating (in words), Gram-positive” value is on record as “high activity”; the “Gram Positive Sample 1 Log Kill” value is 4; the “Gram Positive Sample 2 Log Kill” value was 4; the “Gram Positive Sample 3 Log Kill” value turned out to be 3. Also, the “Gram Positive Average Log Kill” value in data set [4] came to 3.6667. In data set [4] (Gram-positive and Gram-negative together), the “Reduction of bacterial loads by coating” value was “at least 90%”. In addition, the “Reduction of Gram-positive bacteria by peptide containing coating” value in data set [4] (after two hours) turned out to be 99.9%. In addition, the “Molecules Peptide per mm^2 at surface of coating” value in data set [5] is on record as 6.8 × 10^13 Molecules Peptide per mm^2. Further, in the data set on Escherichia coli, the “MIC Gram −” value is 0.000667 mg of peptide per mL of culture media. The “Toxicity to eukaryotic cells” value in the data set with eukaryotic cells is reported as “varying levels of toxicity”. Also, the Antimicrobial activity concentration result in data set [6] is “low micromolar”.

The values are drawn from US8394762B2, “Self-decontaminating coatings containing antimicrobial peptides” (The United States of America, as represented by the …, priority 2010, dated 2013).
